Ends that are not written are not given here. Peptide text beside a SMILES is read from it.
Experiments:
[1] = target: T1, CRF2R (Homo sapiens, UniProt Q13324); experiment: CRF2R agonist activation (EC50 / Emax), called comparative CRF binding; type: cell-based; conditions: for Emax: read-out: CRF2R Emax; for EC50: read-out: CRF2R EC50
T1 sequence (Q13324 1-411): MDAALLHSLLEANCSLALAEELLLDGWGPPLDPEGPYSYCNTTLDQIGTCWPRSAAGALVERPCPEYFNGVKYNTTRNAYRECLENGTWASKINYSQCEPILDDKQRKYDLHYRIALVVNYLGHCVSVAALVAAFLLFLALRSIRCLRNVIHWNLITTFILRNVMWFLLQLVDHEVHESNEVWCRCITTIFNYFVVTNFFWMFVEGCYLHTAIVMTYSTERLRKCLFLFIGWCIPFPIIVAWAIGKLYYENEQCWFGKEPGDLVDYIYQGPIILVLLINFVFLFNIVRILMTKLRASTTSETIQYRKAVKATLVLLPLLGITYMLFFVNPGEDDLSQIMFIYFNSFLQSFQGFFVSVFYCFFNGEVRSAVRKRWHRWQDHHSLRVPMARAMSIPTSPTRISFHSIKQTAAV
Outline: (§1)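 CRFR-expressing cells + peptide vs vehicle; read-out cAMP (lysate assay) or CRE-linked reporter expression (luciferase, CAT, fluorescent protein, alkaline phosphatase, etc.). Signal compared against vehicle-treated cells.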

[2] = target: T2, CRF1R (Homo sapiens, UniProt P34998); experiment: CRF1R agonist activation (EC50 / Emax), called comparative CRF binding; type: cell-based; conditions: for Emax: read-out: CRF1R Emax; for EC50: read-out: CRF1R EC50
T2 sequence (P34998 24-415): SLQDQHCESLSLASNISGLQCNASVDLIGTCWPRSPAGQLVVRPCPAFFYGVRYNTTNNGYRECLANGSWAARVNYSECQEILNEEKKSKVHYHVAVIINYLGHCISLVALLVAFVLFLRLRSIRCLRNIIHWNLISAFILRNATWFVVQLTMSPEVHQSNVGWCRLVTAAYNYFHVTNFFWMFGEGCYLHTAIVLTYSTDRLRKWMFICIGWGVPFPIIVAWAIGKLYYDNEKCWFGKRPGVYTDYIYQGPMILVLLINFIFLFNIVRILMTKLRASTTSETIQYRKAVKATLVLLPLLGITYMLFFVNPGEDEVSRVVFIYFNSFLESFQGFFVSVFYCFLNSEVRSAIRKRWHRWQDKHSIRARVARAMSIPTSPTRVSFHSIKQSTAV
Outline: as §1

| Molecule | Emax [1] [%] | Emax [2] [%] | EC50 [1] [nM] | EC50 [2] [nM] |
| --- | --- | --- | --- | --- |
| SQEPPISLDLPIQLLREVLEMTKADQLAQQAHSNRKLLDIA-NH2 [compound 100] | 9.85 | 6.25 | – | – |
| CC[C@H](C)[C@H](NC(=O)[C@H](C)NC(=O)[C@H](CC(N)=O)NC(=O)[C@H](CCC(N)=O)NC(=O)[C@H](CCC(=O)O)NC(=O)[C@H](C)NC(=O)[C@H](CCCNC(=N)N)NC(=O)[C@H](CCC(=O)O)NC(=O)[C@H](CCCNC(=N)N)NC(=O)[C@H](CCC(N)=O)NC(=O)[C@H](CO)NC(=O)[C@H](CCC(N)=O)NC(=O)[C@@H](NC(=O)[C@H](CCCCN)NC(=O)[C@H](CCC(=O)O)NC(=O)[C@H](CC(C)C)NC(=O)[C@H](CCC(=O)O)NC(=O)[C@H](CC(C)C)NC(=O)[C@H](CC(C)C)NC(=O)[C@@H](NC(=O)[C@H](CCCNC(=N)N)NC(=O)[C@H](CC(C)C)NC(=O)[C@H](CC(C)C)NC(=O)[C@H](CCC(N)=O)NC(=O)[C@H](CC(C)C)NC(=O)[C@@H]1CCCN1C(=O)[C@H](CC(C)C)NC(=O)[C@H](CC(=O)O)NC(=O)[C@@H](NC(=O)[C@H](CO)NC(=O)[C@H](CC(C)C)NC(=O)[C@H](CO)NC(=O)[C@@H]1CCCN1C(=O)[C@H](CC(N)=O)NC(=O)[C@@H](N)CC(=O)O)[C@@H](C)CC)[C@@H](C)O)[C@@H](C)O)C(=O)N[C@H](C(=O)N[C@@H](Cc1ccccc1)C(=O)N[C@@H](C)C(=O)N[C@@H](CO)C(=O)N[C@H](C(N)=O)C(C)C)[C@@H](C)CC [compound 342] (H-DNPSLSIDLPLQLLRTLLELEKTQSQRERAEQNAIIFASV-NH2; N-terminus assumed) | 92.2 | 19.6 | – | – |
| CC[C@H](C)[C@H](NC(=O)[C@H](CC(=O)O)NC(=O)[C@H](CC(C)C)NC(=O)[C@H](CC(C)C)NC(=O)[C@H](CCCCN)NC(=O)[C@H](CCCNC(=N)N)NC(=O)[C@H](CC(N)=O)NC(=O)[C@H](CO)NC(=O)[C@H](Cc1c[nH]cn1)NC(=O)[C@H](C)NC(=O)[C@H](CCC(N)=O)NC(=O)[C@H](CCC(N)=O)NC(=O)[C@H](C)NC(=O)[C@H](CC(C)C)NC(=O)[C@H](CCC(N)=O)NC(=O)[C@H](CC(=O)O)NC(=O)[C@H](C)NC(=O)[C@H](CCCCN)NC(=O)[C@@H](NC(=O)[C@H](CCSC)NC(=O)[C@H](CCC(=O)O)NC(=O)[C@H](CC(C)C)NC(=O)[C@@H](NC(=O)[C@H](CCC(=O)O)NC(=O)[C@H](CCCNC(=N)N)NC(=O)[C@H](CC(C)C)NC(=O)[C@H](CC(C)C)NC(=O)[C@H](Cc1c[nH]cn1)NC(=O)[C@H](Cc1ccccc1)NC(=O)[C@@H]1CCCN1C(=O)[C@H](CC(C)C)NC(=O)[C@H](CC(=O)O)NC(=O)[C@H](CC(C)C)NC(=O)[C@H](CO)NC(=O)[C@@H](NC(=O)[C@@H]1CCCN1C(=O)[C@@H]1CCCN1C(=O)[C@H](CCC(=O)O)NC(=O)[C@H](CCC(N)=O)NC(=O)[C@@H](N)CO)[C@@H](C)CC)C(C)C)[C@@H](C)O)C(=O)N[C@@H](C)C(N)=O [compound 104] | 4.5 | 11.1 | – | – |
| CC[C@H](C)[C@H](NC(=O)[C@H](C)NC(=O)[C@H](CC(N)=O)NC(=O)[C@H](CCC(N)=O)NC(=O)[C@H](CCC(=O)O)NC(=O)[C@H](C)NC(=O)[C@H](CCCNC(=N)N)NC(=O)[C@H](CCC(=O)O)NC(=O)[C@H](CCCNC(=N)N)NC(=O)[C@H](CCC(N)=O)NC(=O)[C@H](CO)NC(=O)[C@H](CCC(N)=O)NC(=O)[C@@H](NC(=O)[C@H](CCCCN)NC(=O)[C@H](CCC(=O)O)NC(=O)[C@H](CC(C)C)NC(=O)[C@H](CCC(=O)O)NC(=O)[C@H](CC(C)C)NC(=O)[C@H](CC(C)C)NC(=O)[C@@H](NC(=O)[C@H](CCCNC(=N)N)NC(=O)[C@H](CC(C)C)NC(=O)[C@H](CC(C)C)NC(=O)[C@H](CC(C)C)NC(=O)[C@H](CC(C)C)NC(=O)[C@@H]1CCCN1C(=O)[C@H](CC(C)C)NC(=O)[C@H](CC(=O)O)NC(=O)[C@@H](NC(=O)[C@H](CO)NC(=O)[C@H](CC(C)C)NC(=O)[C@H](CO)NC(=O)[C@@H]1CCCN1C(=O)[C@H](CC(N)=O)NC(=O)[C@@H](N)CC(=O)O)[C@@H](C)CC)[C@@H](C)O)[C@@H](C)O)C(=O)N[C@H](C(=O)N[C@@H](Cc1ccccc1)C(=O)N[C@@H](C)C(=O)N[C@@H](CO)C(=O)N[C@H](C(N)=O)C(C)C)[C@@H](C)CC [compound 346] (H-DNPSLSIDLPLLLLRTLLELEKTQSQRERAEQNAIIFASV-NH2; N-terminus assumed) | 97.8 | 59 | – | – |
| SQEPPISLDLPTGLLREVLEMTKADQLAQQAHSNRKLLDIA-NH2 [compound 98] | 5.5 | 4 | – | – |
| SQEPPISLDLPFYLLREVLEMTKADQLAQQAHSNRKLLDIA-NH2 [compound 96] | 12.5 | 16.3 | – | – |
| SQEPPISLDLTFHLLREVLEQARARAAREQATTNARILARV-NH2 [compound 157] | 60.6 | 91 | – | – |
| CC[C@H](C)[C@H](NC(=O)[C@H](CCCNC(=N)N)NC(=O)[C@H](C)NC(=O)[C@H](CC(N)=O)NC(=O)[C@H](CCC(N)=O)NC(=O)[C@H](CCC(=O)O)NC(=O)[C@H](C)NC(=O)[C@H](CCCNC(=N)N)NC(=O)[C@H](CCC(=O)O)NC(=O)[C@H](CCCNC(=N)N)NC(=O)[C@H](CCC(N)=O)NC(=O)[C@H](CO)NC(=O)[C@H](CCC(N)=O)NC(=O)[C@@H](NC(=O)[C@H](CCCCN)NC(=O)[C@H](CCC(=O)O)NC(=O)[C@H](CC(C)C)NC(=O)[C@H](CCC(=O)O)NC(=O)[C@H](CC(C)C)NC(=O)[C@H](CC(C)C)NC(=O)[C@@H](NC(=O)[C@H](CCCNC(=N)N)NC(=O)[C@H](CC(C)C)NC(=O)[C@H](CC(C)C)NC(=O)[C@H](Cc1ccccc1)NC(=O)[C@H](CC(C)C)NC(=O)[C@@H]1CCCN1C(=O)[C@H](CC(C)C)NC(=O)[C@H](CC(=O)O)NC(=O)[C@@H](NC(=O)[C@H](CO)NC(=O)[C@H](CC(C)C)NC(=O)[C@H](CO)NC(=O)[C@@H]1CCCN1C(=O)[C@H](CC(N)=O)NC(=O)[C@@H](N)CC(=O)O)[C@@H](C)CC)[C@@H](C)O)[C@@H](C)O)C(=O)N[C@@H](Cc1ccccc1)C(=O)N[C@@H](CC(=O)O)C(=O)N[C@@H](CCCNC(=N)N)C(=O)N[C@H](C(N)=O)C(C)C [compound 336] (H-DNPSLSIDLPLFLLRTLLELEKTQSQRERAEQNARIFDRV-NH2; N-terminus assumed) | 100 | 59.9 | – | – |
| CC[C@H](C)[C@H](N)C(=O)N[C@H](C(=O)N[C@@H](CC(C)C)C(=O)N[C@@H](CO)C(=O)N[C@@H](CC(C)C)C(=O)N[C@@H](CC(=O)O)C(=O)N[C@H](C(=O)N1CCC[C@H]1C(=O)N[C@H](C(=O)NCC(=O)N[C@@H](CC(C)C)C(=O)N[C@@H](CC(C)C)C(=O)N[C@@H](CCC(N)=O)C(=O)N[C@H](C(=O)N[C@@H](CC(C)C)C(=O)N[C@@H](CC(C)C)C(=O)N[C@@H](CCC(=O)O)C(=O)N[C@@H](CCC(N)=O)C(=O)N[C@@H](C)C(=O)N[C@@H](CCCCN)C(=O)N[C@@H](CCC(N)=O)C(=O)N[C@@H](CCC(=O)O)C(=O)N[C@@H](C)C(=O)N[C@@H](C)C(=O)N[C@@H](CCCNC(=N)N)C(=O)N[C@@H](CCC(=O)O)C(=O)N[C@@H](CCC(N)=O)C(=O)N[C@@H](C)C(=O)N[C@H](C(=O)N[C@H](C(=O)N[C@@H](CC(N)=O)C(=O)N[C@@H](C)C(=O)N[C@@H](CCCNC(=N)N)C(=O)N[C@H](C(=O)N[C@@H](CC(C)C)C(=O)N[C@@H](C)C(=O)N[C@@H](CCCNC(=N)N)C(=O)N[C@H](C(N)=O)C(C)C)[C@@H](C)CC)[C@@H](C)O)[C@@H](C)O)[C@@H](C)CC)[C@@H](C)CC)C(C)C)C(C)C [compound 124] (H-IVLSLDVPIGLLQILLEQAKQEAAREQATTNARILARV-NH2; N-terminus assumed) | 94 | 6 | 3.49 | > 100 |
| CC[C@H](C)[C@H](NC(=O)[C@H](CCCNC(=N)N)NC(=O)[C@H](C)NC(=O)[C@H](CC(N)=O)NC(=O)[C@H](CCC(N)=O)NC(=O)[C@H](CCC(=O)O)NC(=O)[C@H](C)NC(=O)[C@H](CCCNC(=N)N)NC(=O)[C@H](CCC(=O)O)NC(=O)[C@H](CCCNC(=N)N)NC(=O)[C@H](CCC(N)=O)NC(=O)[C@H](CO)NC(=O)[C@H](CCC(N)=O)NC(=O)[C@@H](NC(=O)[C@H](CCCCN)NC(=O)[C@H](CCC(=O)O)NC(=O)[C@H](CC(C)C)NC(=O)[C@H](CCC(=O)O)NC(=O)[C@H](CC(C)C)NC(=O)[C@H](CC(C)C)NC(=O)[C@@H](NC(=O)[C@H](CCCNC(=N)N)NC(=O)[C@H](CC(C)C)NC(=O)[C@H](CC(C)C)NC(=O)[C@H](Cc1ccccc1)NC(=O)[C@H](CC(C)C)NC(=O)[C@@H]1CCCN1C(=O)[C@H](CC(C)C)NC(=O)[C@H](CC(=O)O)NC(=O)[C@@H](NC(=O)[C@H](CO)NC(=O)[C@H](CC(C)C)NC(=O)[C@H](CO)NC(=O)[C@@H]1CCCN1C(=O)[C@H](CC(N)=O)NC(=O)[C@@H](N)CC(=O)O)[C@@H](C)CC)[C@@H](C)O)[C@@H](C)O)C(=O)N[C@@H](Cc1ccccc1)C(=O)N[C@@H](C)C(=O)N[C@@H](CCCNC(=N)N)C(=O)N[C@H](C(N)=O)C(C)C [compound 334] (H-DNPSLSIDLPLFLLRTLLELEKTQSQRERAEQNARIFARV-NH2; N-terminus assumed) | 93.5 | 82.6 | 13.2 | ≥ 1000 |
